“And” between values parts separate entries of the source, which are not always exact repeats. Equal entries are not always repeated.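 Where inhibition never reached the appropriate level, the endpoint shown equals the highest concentration tested. Otherwise, values were interpolated linearly from a five-concentration, 48-hour dose response in 96-well plates. Abbreviation: GI50, concentration required for 50% inhibition of growth. TGI marks complete inhibition of growth.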
Experiments:
Assay in all cases: NCI anticancer screen, dose series, 48 h
[1] = test system: HCC-2998 colon
[2] = test system: A549 NSCLC
[3] = test system: RXF 393 renal
[4] = test system: SNB-75 CNS
[5] = test system: HT29 colon
[6] = test system: IGROV1 ovarian
[7] = test system: M14 melanoma
[8] = test system: COLO 205 colon
[9] = test system: 786-0 renal
[10] = test system: NCI-H460 lung

Row | SMILES | GI50 [1] [µM] | TGI [1] | GI50 [2] | TGI [2] | GI50 [3] [µM] | TGI [3] [µM] | GI50 [4] [µM] | TGI [4] | GI50 [5] [µM] | TGI [5] | GI50 [6] | TGI [6] | GI50 [7] | TGI [7] | GI50 [8] | TGI [8] | GI50 [9] | TGI [9] | GI50 [10] | TGI [10]
1 | COc1cc(OC)cc(C2CC(=O)Nc3c2c(C)nn3-c2nc3ccccc3[nH]2)c1 (centres undefined) | 3.7 | 56.5 µM | 3.18 µM | 15.5 µM | 3.21 | 24.6 | 3.47 | 9.65 µM | 2.75 | 7.43 µM | 2.74 µM | 7.76 µM | 2.46 µM | 7.27 µM | 2.7 µM | 6.55 µM | 2.84 µM | 9.89 µM | 2.58 µM | 6.1 µM
2 | CCN(CC)CC(O)CNc1ccc(NCC2CO2)c2c1C(=O)c1ccccc1C2=O (centres undefined) | 0.587 | 2.77 µM | – | 5.69 µM | – | 0.953 | – | 4.29 µM | 0.275 | 6.87 µM | 0.657 µM | 5.79 µM | – | 0.402 µM and 0.674 µM | 0.581 µM | 4.38 µM | 0.374 µM | 1.15 µM | 0.39 µM | 3.16 µM
3 | CC(=O)c1cccc(N2COC(C)(C)c3nc4ccccc4n3C2)c1 | – | > 100 µM | – | > 100 µM | – | > 100 | – | > 100 µM | – | > 100 µM | – | > 100 µM | – | > 100 µM | – | > 100 µM | – | > 100 µM | – | > 100 µM
4 | CCN(CC)CCCC(C)Nc1c2ccc(Cl)cc2nc2ccc(OC)cc12 (centres undefined) | – | 2.9 µM and 2.69 µM | – | 3.68 µM and 3.64 µM | – | 2.53 | 2.35 | 6.66 µM and 3.05 µM | – | 3.97 µM and 2.57 µM | 3.21 µM | 13.2 µM and 5.49 µM | – | 3.36 µM and 3.39 µM | – | 3.11 µM and 7.34 µM | 1.88 µM | 4.15 µM and 4.77 µM | 1.3 µM | 3.21 µM and 2.4 µM
5 | CN[C@@H](C)C(=O)N[C@H](C(=O)N1CCC[C@H]1C(=O)N[C@H]1c2ccccc2C[C@H]1OCC#CC#CCO[C@@H]1Cc2ccccc2[C@@H]1NC(=O)[C@@H]1CCCN1C(=O)[C@@H](NC(=O)[C@H](C)NC)C1CCCCC1)C1CCCCC1 | 1.77 | 4.45 µM | 15.5 µM | 31.5 µM | < 0.0371 | – | < 0.01 | 1.16 µM | 3.68 | 12.6 µM | 6.41 µM | 21 µM | 5.72 µM | 18 µM | 1.78 µM | 3.55 µM | 9.29 µM | 25.3 µM | 2.66 µM | 6.77 µM
6 | O=S(=O)(N/N=C/c1ccc(/C=N/NS(=O)(=O)c2ccccc2)cc1)c1ccccc1 | – | > 100 µM | – | > 100 µM | – | 77.4 | – | > 100 µM | – | > 100 µM | – | > 100 µM | – | > 100 µM | – | 43.1 µM | – | > 100 µM | – | > 100 µM
7 | CCOC(=O)C(N)C[S][Sn]([CH3])([CH3])[Cl] (centres undefined) | > 100 | > 100 µM | > 100 µM | > 100 µM | > 100 | > 100 | 52.5 | > 100 µM | > 100 | > 100 µM | > 100 µM | > 100 µM | > 100 µM | > 100 µM | > 100 µM | > 100 µM | > 100 µM | > 100 µM | > 100 µM | > 100 µM
8 | NNC(=O)/C(=C/c1ccc(Cl)c(Cl)c1)NC(=O)c1ccccc1 | – | > 100 µM | – | > 100 µM | – | > 100 | – | > 100 µM | – | > 100 µM | – | > 100 µM | – | > 100 µM | – | > 100 µM | – | > 100 µM | – | > 100 µM
9 | COc1ccc([N+](=O)[O-])c2c(NCCCN(C)C)c3ccccc3nc12 | – | 0.0727 µM | – | 0.895 µM | – | 0.253 | – | 0.802 µM | – | 1.22 µM | – | 0.234 µM | – | 0.572 µM | – | 0.26 µM | – | 0.504 µM | – | 0.257 µM
10 | O=C1c2ccccc2-c2cccc3ccc(Cc4ccc5ccccc5c4)c1c23 | – | > 100 µM | – | > 100 µM | – | > 100 | – | > 100 µM | – | > 100 µM | – | > 100 µM | – | > 100 µM | – | > 100 µM | – | > 100 µM | – | > 100 µM
11 | CCOC(=O)C(Cc1c[nH]c2ccc(N)cc12)(NC(C)=O)C(=O)OCC | > 1000 | > 1000 µM | > 1000 µM | > 1000 µM | > 1000 | > 1000 | > 1000 | > 1000 µM | > 1000 | > 1000 µM | > 1000 µM | > 1000 µM | – | > 1000 µM | 849 µM | > 1000 µM | > 1000 µM | > 1000 µM | > 1000 µM | > 1000 µM
12 | COc1cc(Cl)c2c3c(c(C(C)=O)oc13)CCC2 | – | > 100 µM | – | > 100 µM | – | > 100 | – | > 100 µM | – | > 100 µM | – | > 100 µM | – | > 100 µM | – | > 100 µM | – | > 100 µM | – | > 100 µM
13 | Nc1ccc(N(S(=O)(=O)c2ccccc2)S(=O)(=O)c2ccccc2)c(Cl)c1 | – | 64.2 µM | – | > 100 µM | – | > 100 | – | > 100 µM | – | > 100 µM | – | > 100 µM | – | > 100 µM | – | > 100 µM | – | > 100 µM | – | > 100 µM
14 | CCCCc1c2c(nc3c1CCC/C3=C\c1ccccc1)C(=O)CCC2 | – | 35.2 µM | – | 62 µM | – | 33 | – | 84.5 µM | – | 31.4 µM | – | 42.5 µM | – | 41.9 µM | – | 48.6 µM | – | 60.9 µM | – | > 100 µM
15 | COC(=O)CCc1cc(OC)c2c(c1)C(C(=O)OC)C(c1ccc(OC)c(OC)c1)O2 (centres undefined) | – | > 100 µM | > 100 µM and 38 µM | > 100 µM | – | > 100 | – | 50.6 µM | – | > 100 µM | > 100 µM and 21.5 µM | > 100 µM | > 100 µM and 11.6 µM | > 100 µM | > 100 µM and 21.6 µM | > 100 µM | > 100 µM and 40.9 µM | > 100 µM | > 100 µM and 46.4 µM | > 100 µM
16 | CC(O)c1cccc(NCc2c3ccccc3c(=O)n3c2oc2ccccc23)c1 (centres undefined) | 11.3 | 57.2 µM | 2.33 µM | 24 µM | 22.5 | 67.8 | 1.75 | 5.76 µM | 35.6 | > 100 µM | 1.32 µM | 27 µM | 4.5 µM | 25.2 µM | > 100 µM | > 100 µM | 4.18 µM | 19.2 µM | > 100 µM | > 100 µM
17 | C=CC1(C(=O)O)CCC(C(C)(C)C)CC1 (centres undefined) | – | > 100 µM | – | > 100 µM | – | > 100 | – | > 100 µM | – | > 100 µM | – | > 100 µM | – | > 100 µM | – | > 100 µM | – | > 100 µM | – | > 100 µM

From PubChem BioAssay (NCI)
